In one data set the target is T1, BKB1 receptor (Homo sapiens, UniProt P46663).
T1 sequence (P46663 1-353): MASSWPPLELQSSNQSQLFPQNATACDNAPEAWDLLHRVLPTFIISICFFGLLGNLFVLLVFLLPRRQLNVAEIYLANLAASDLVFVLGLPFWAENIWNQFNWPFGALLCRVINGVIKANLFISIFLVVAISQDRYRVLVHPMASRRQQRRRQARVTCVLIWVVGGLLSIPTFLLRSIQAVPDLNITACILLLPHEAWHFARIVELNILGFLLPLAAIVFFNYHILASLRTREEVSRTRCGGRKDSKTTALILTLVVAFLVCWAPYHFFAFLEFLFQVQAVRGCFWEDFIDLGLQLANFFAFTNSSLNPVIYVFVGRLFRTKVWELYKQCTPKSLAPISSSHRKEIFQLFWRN
Conditions: Gobeil et al. 1996; cited from earlier work.

A short description of the next data set: serum. Conditions: rat, 37° C., up to 4 hours.
The next data set in a line: blood. To be noted: rat, 37° C., up to 4 hours.
The nature of another data set: plasma. To be noted: rat, 37° C., up to 4 hours.
Data set [1] relates to angiotensin converting enzyme (ACE). In words: Purified ACE from rabbit lungs (Sigma, St. Louis, Mo.) dissolved in PBS (50 mM, pH 7.5, containing 300 mM NaCl and 10 μM ZnCl2). Conditions: 37° C., up to 60 min.
Data set [2] in a line: human plasma as a source of aminopeptidase M (AmM). To be noted: up to 60 min.
In data set [3] the test system is STZ diabetic mice. In words: Plantar stimulation test, type-1 diabetic hyperalgesia. The format is in vivo. As for the experimental part:
(§1) Male CD-1 mice weighting between 25–30 g (Charles River Breeding Laboratory, St-Constant, QC, Canada) were used. The mice were housed four by cage with free access to food and water. They were maintained under conditions of standard lighting, (alternating 12-h light/dark cycle), temperature (22±0.5° C.) and humidity (60±10%) with food and water available at libitum. Animals were used only once in a given experiment. Experiments were conducted between 10:00 and 18:00 h. […]
(§2) Insulin-dependent diabetes mellitus (IDDM) was induced in mice using STZ. […] Blood glucose levels were determined with an automatic analyzer (Glucometer Elite XL, Bayer Incorporation, Toronto, Ontario, Canada) using glucose oxidase/potassium ferricyanide reagent strips. […]
In the plantar stimulation test, the method of Hargreaves et al. (Hargreaves et al., 1988, Pain, 32, 77–88) was used to access the hind-paw nociceptive withdrawal thresholds of a free moving mouse to thermal stimuli. […] Each latency value was determined from two applications of the radiant heat stimulus, separated by 1–2 min intervals, and the mean of the two measures is taken. […]
(§3) In all tests, pre-treatment latencies were determined three times with an interval of 24 h starting three days before the injection of STZ or saline and the mean was calculated in order to obtain stable pre-drug response latency. […]

In data set [4] the test system is STZ diabetic mice. The experiment in a line: Tail flick test, type-1 diabetic hyperalgesia. The format is in vivo. As for the experimental part:
(§4) Male CD-1 mice weighting between 25–30 g (Charles River Breeding Laboratory, St-Constant, QC, Canada) were used. The mice were housed four by cage with free access to food and water. They were maintained under conditions of standard lighting, (alternating 12-h light/dark cycle), temperature (22±0.5° C.) and humidity (60±10%) with food and water available at libitum. Animals were used only once in a given experiment. Experiments were conducted between 10:00 and 18:00 h.
(§5) Streptozotocin (Pharmacia & Upjohn Incorporation, Mississauga, ON, Canada) was dissolved in saline at a pH of 4.5 and administered to mice i.p. The BKB1 agonist desArg^9BK and compound c were dissolved in saline and administered to mice i.p.
(§6) Insulin-dependent diabetes mellitus (IDDM) was induced in mice using STZ. Male CD-1 mice were given a single high i.p. dose of STZ (200 mg/kg) (McEvoy et al., 1984, J Clin Invest 74, 715–722). […] Blood glucose levels were determined with an automatic analyzer (Glucometer Elite XL, Bayer Incorporation, Toronto, Ontario, Canada) using glucose oxidase/potassium ferricyanide reagent strips. […]
The tail flick test of D'Amour and Smith (D'Amour and Smith, 1941, J Pharmacol Exp Ther 72, 74–79) modified for mice was used. […] The radiant light is focussed on a blackened spot in the mid region of the animal's tail (2–3 cm from the tip of the tail) and the latency between the application of the stimulation light and the flicking of the animal's tail is recorded. When the animal flicks its tail, its exposes a photocell in the apparatus immediately below the tail and the instrument is automatically stopped and the time is recorded. […]
(§7) The effect of the selected drugs on nociception was determined by converting the hot plate, the plantar stimulation, the tail immersion or the tail flick responses from latencies into MPE (Maximum Percent Effect) according to the following equation (Bhargava and Zhao, 1996, Neuropeptides, 30, 219–223): […]
Background: Hot-plate and tail-flick tests time the reaction to a heat stimulus.

Data set [5] has as its system STZ diabetic mice. In words: Tail immersion test, type-1 diabetic hyperalgesia. It is filed as in vivo. The procedure:
as §1, §2
The tail-immersion test was performed according to Coderre and Rollman (Coderre and Rollman, 1983, Life Sci 32, 2139–2146). […] The latency between submersion of the tail and its removal from the water by the animal was recorded, with a maximum cut-off time of 10 seconds to minimize tail skin tissue damage. […]
as §7

Data set [6] relates to STZ diabetic mice. In words: Hot plate test, type-1 diabetic hyperalgesia. It is filed as in vivo. Conditions: 400 μg/kg i.p. As for the experimental part:
as §4, §5, §6
The hot plate test was adapted from the technique of Eddy and Leimbach (1953, J Pharmacol Exp Ther 107, 385–389). […] When the pain threshold is reached the animal starts to react by licking its hind paw or to jump, and the reaction time is recorded with a built-in timer, with a maximum cut-off time of 30 s to avoid tissue damage. […]
as §7, §3

The subject of the next data set is aminopeptidases. To be noted: cited from earlier work.
Data set [7] deals with carboxypeptidases of the N type (CPN). To be noted: cited from earlier work.
Data set [8] deals with carboxypeptidases of the M type (CPM). To be noted: cited from earlier work.

As for “Lys-desArg^9BK (KRPPGFSPF; Lys - des-Arg9 Bradykinin) [BKB1 receptor agonist]”, in the data set with BKB1 receptor, the “potency relative to desArg^9BK” value is reported as 100 fold.
“Ac-Orn[Oic^2,(α-Me)Phe^5,D-βNal^7,Ile^8]desArg^9BK”: the not cleaved is recorded as >90% parent remaining after 4 hours in “serum”; >90% parent remaining after 4 hours in the data set “blood”; >90% parent remaining after 4 hours in the data set “plasma”; “Peptide metabolism 0 % (60 min)” in data set [1]; “Peptide metabolism 0 % (60 min)” in [2].
Regarding desArg^9BK, the MPE was −21.03±0.75% in the data set with STZ diabetic mice [3] (STZ diabetic mice, 400 μg/kg i.p., 20 min after injection) and −19.23±0.60% in the data set with STZ diabetic mice [5] (STZ diabetic mice, i.p., 20 min after administration). The “change in nociceptive response” value with STZ diabetic mice [3] (healthy mice) and with STZ diabetic mice [6] (control mice) was “did not induce significant changes” throughout. The “potentiating effect on hyperalgesic activity” value in the data set on STZ diabetic mice [4] (STZ diabetic mice, maximal after 10 min) is reported as 48%. For the same substance, the “change in tail flick test” value in the data set with STZ diabetic mice [4] (control mice, 400 μg/kg i.p.) is listed as “did not induce significant changes”. Also, the “change in tail immersion latencies” value in the data set on STZ diabetic mice [5] (control mice) is “did not show significant changes”. The “potentiation of hyperalgesic response” value with STZ diabetic mice [6] (STZ diabetic mice) is 98%.
Lys Arg Pro Pro Gly Phe Ser Pro Phe Arg: the fragment found entry with aminopeptidases is recorded as “BK”. Besides, the cleaved bond entry in data set [7] and in data set [8] was “Phe8-Arg9” each time.

The record behind these values is patent US7211566B2 (Universite De Sherbrooke, priority 2003, dated 2007).
